Measured values reported in PMC9029599, “Cytotoxicity and Antiviral Properties of Alkaloids Isolated from Pancratium maritimum” (Toxins, 2022).
pEC50, pIC50: −log10 of the molar value. Read-outs that look alike come from different tables or passages of the source.

Key:
[1] = test system: AGS cells; assay: MTT viability test, AGS cells; type: cell-based; conditions: for effect on AGS cell viability: 0.5 to 50 µM, 24 and 48 h; for pIC50: Homo sapiens, AGS; for cytotoxic activity on AGS cells: in words
Experimental: (§3) The potential cytotoxic activity of P. maritimum alkaloids was evaluated on Hacat, A431 and AGS cells treated with concentrations ranging from 0.5 to 10 µM for 24 and 48 h by measuring the reduction of 3-(4,5-dimethylthiazol-2) 2,5- diphenyltetrazolium bromide (MTT) to formazan by the mitochondrial enzyme succinate dehydrogenase.
(§4) HaCaT, spontaneously immortalized keratinocytes from adult skin, and AGS gastric adenocarcinoma cells were purchased from Service Cell Line (GmBH, Eppelheim, CLS, Germany). A431 (ATCC-CRL1555) human epidermoid carcinoma cells were from American Type Culture Collection (ATCC, Manassas, VA, USA). All mentioned cell lines were cultured in Dulbecco’s Modified Eagle’s Medium (DMEM, Sigma Chemical Co., St. Louis, MO, USA) supplemented with 10% fetal bovine serum (FBS, Hyclone Laboratories, Inc. Logan, UT, USA) at 37 °C in a humidified atmosphere of 5% CO2. Absence of mycoplasma contamination was verified for all cell lines. The purified alkaloids were resuspended in DMSO and added to the cell medium at concentrations varying from 0.5 to 50 µM as indicated.
Cell viability was evaluated by measuring the reduction of 3-(4,5-dimethylthiazol-2) 2,5-diphenyltetrazolium bromide (MTT) to formazan by the mitochondrial enzyme succinate dehydrogenase. Briefly, 10 × 10^3 cells were seeded on 96-well plates and exposed to different concentrations of total extract or metabolites for 48 h. and 72 h. MTT/PBS solution (0.5 mg/mL) was then added to the wells and incubated for 3 h at 37 °C in a humidified atmosphere. The reaction was stopped by removal of the supernatant followed by dissolving the formazan product in acidic isopropanol and the optical density was measured with Synergy H4 microplate reader Gen5 2.07 (Thermofisher, Waltham, MA, USA) using a 570 nm filter. Under these experimental conditions, no undissolved formazan crystals were observed. Cell viability was assessed by comparing the optical density of the treated samples compared to the controls. […] Data were represented as the mean standard deviation and analyzed for statistical significance using ordinary one-way analysis of variance (ANOVA) and multiple comparisons. For all tests, p < 0.05 was considered to indicate a statistically significant difference.

[2] = test system: DENVGFP; assay: microbe, parasite or virus in culture; type: cell-based, dengue virus
[3] = Cytotoxicity in Huh7 cells (ATP levels, Cell-Titer GLO); conditions: human
Experimental: (§1) To account for non-specific antiviral activity caused by enhanced cell death, the cytotoxicity of P. maritimum isolated AAs was first determined in THP-1 and Huh7 virus-targeted cell lines exposed to concentrations ranging from 0.05 to 200 µM for 72 h. Cell viability was measured using ATP levels as a marker.
(§2) The monocytic cell line THP-1 derived from an acute monocytic leukemia patient was used in HIV-1GFP infection assays, while the hepatocyte-derived carcinoma cell line Huh7 was used with DENVGFP. Cell viability was evaluated using the Cell-Titer GLO assay kit (Promega, Madison, WI, USA) as previously described. Briefly, 7.5 × 10^3 Huh7 cells/well or 4 × 10^4 THP-1 cells/well were seeded in 96-well dark plates and treated with isolated AAs dissolved in methanol at concentrations ranging from 0.05 to 200 µM for 72 h. Afterwards, Cell-Titer GLO reagent was added in each well of room temperature-equilibrated plates. Luminescence was measured 10 min after shaking the plates for 2 min using a microplate spectrophotometer (Synergy H1, Biotek, Québec, QC, Canada). The percentage of viable cells was calculated at each concentration relatively to cells treated with matched concentrations of MetOH.

[4] = test system: Huh7 cells; assay: as above
Experimental: as §1, §2

[5] = Cytotoxicity in THP-1 cells (ATP levels, Cell-Titer GLO); conditions: human
Experimental: as §1, §2

[6] = test system: VSV-G-pseudotyped HIV-1GFP; assay: cells; type: cell-based, human immunodeficiency virus-1; conditions: for pEC50: read-out: EC50 HIVGFP
[7] = test system: THP-1 cells; assay: Cytotoxicity in THP-1 cells (ATP levels, Cell-Titer GLO); conditions: 72 h; for live THP-1 cells: 6.25 µM
Experimental: as §1, §2

[8] = test system: Hacat cells; conditions: for reduction of Hacat cell viability: 10 µM, 24 h of treatment, MTT; for cytotoxic activity on Hacat cells: in words
Experimental: as §3, §4
(§5) Cell viability was evaluated by measuring the reduction of 3-(4,5-dimethylthiazol-2) 2,5-diphenyltetrazolium bromide (MTT) to formazan by the mitochondrial enzyme succinate dehydrogenase. Briefly, 10 × 10^3 cells were seeded on 96-well plates and exposed to different concentrations of total extract or metabolites for 48 h. and 72 h. MTT/PBS solution (0.5 mg/mL) was then added to the wells and incubated for 3 h at 37 °C in a humidified atmosphere. The reaction was stopped by removal of the supernatant followed by dissolving the formazan product in acidic isopropanol and the optical density was measured with Synergy H4 microplate reader Gen5 2.07 (Thermofisher, Waltham, MA, USA) using a 570 nm filter. Under these experimental conditions, no undissolved formazan crystals were observed. Cell viability was assessed by comparing the optical density of the treated samples compared to the controls. Statistical analyses were carried out using the GraphPad Prism version 8.1.2 (https://www.graphpad.com/scientific-software/prism/ (accessed on 18 December 2021)). Data were represented as the mean standard deviation and analyzed for statistical significance using ordinary one-way analysis of variance (ANOVA) and multiple comparisons. For all tests, p < 0.05 was considered to indicate a statistically significant difference.

[9] = test system: A431 cells; conditions: for reduction of A431 cell viability: 10 µM, 24 h of treatment, MTT; for cytotoxic activity on A431 cells: in words
Experimental: as §3, §4, §5

[10] = test system: Hacat cells; assay: cells; conditions: Homo sapiens, read-out: IC50 Hacat
Experimental: as §3, §4, §5

[11] = test system: A431 cells; assay: cells; conditions: Homo sapiens, A-431, read-out: IC50 A431
Experimental: as §3, §4, §5

[12] = Dengue virus, Huh-7, 72 h, read-out: EC50 DENVGFP, Huh7 cells, MOI = 0.02, 72 h
[13] = read-out: EC50 DENVGFP, Huh7 cells, MOI = 0.02, 72 h
[14] = Dengue virus, Huh-7, read-out: EC50 DENV, Huh7 cells
[15] = MTT, time not stated, read-out: IC50 AGS

In the case of COC1C=CC23c4cc5c(cc4C(OC(=O)c4ccc(Br)cc4)N(CC2OC(=O)c2ccc(Br)cc2)C3C1)OCO5 (centres unmarked) [compound 12, 6,11-O,O′-Di-p-Bromobenzoyl Ester of haemanthidine], the “effect on AGS cell viability” value ([1]; MTT) was “able to reduce AGS cell viability”.
Work on CO[C@@H]1C=C[C@@]23c4cc5c(cc4CN(CCc4ccc(O)cc4)[C@@H]2C(=O)N(C)[C@H]3C1)OCO5 [Obliquine] yielded a pEC50 [2, 12] of 4.13, a pEC50 [2, 13] of 4.13 and a viability at 72 h, 100 µM ([3]; Huh7 hepatocyte-derived carcinoma cells) of 82.6%. The “concentration at which Huh7 cell viability is reduced” value ([4]; 72 h) was 100 µM, the viability at 72 h, 100 µM [5] was 55.3% and the CC50 at 72 h ([5]; CC50 THP-1, 72 h, ATP levels) was 127 µM. For the same compound, the “inhibition of HIV-1GFP, dose dependence” value [6] was “dose-dependent inhibition of HIV-1” and the pEC50 ([6]; Homo sapiens, THP-1, 72 h) was 3.82.
With OC1C=C2C3CN(Cc4cc5c(cc43)OCO5)C2CC1O (centres unmarked) [Pancracine] the “DENVGFP inhibition at 1.56 µM” value ([2]; Huh7 cells) was “Complete inhibition”, the pEC50 [2, 12] was 6.45 and the pEC50 [2, 14] was 6.45. The pEC50 [2, 13] was 6.44, the “live Huh7 cells” value ([4]; 6.25 µM, 72 h) was 78.1% and the “concentration at which Huh7 cell viability is reduced” value ([4]; 72 h) was 6.25 µM. For the same compound, the “live THP-1 cells” value [7] was 82%, the “concentration at which THP-1 cell viability begins to decrease” value (from here on “concentration … to decrease”) [7] was 3.125 µM and the CC50 at 72 h ([5]; CC50 THP-1, 72 h, ATP levels) was 25.9 µM. The “HIV-1GFP inhibition at 100 µM” value [6] was “Complete viral inhibition”, the “inhibition of HIV-1GFP, dose dependence” value [6] was “dose-dependent inhibition of HIV-1” and the pEC50 ([6]; Homo sapiens, THP-1, 72 h) was 4.73. It also gave a pEC50 [6] of 4.73.
With CO[C@@H]1C=C[C@@]23c4cc5c(cc4C(O)N(C[C@@H]2O)[C@H]3C1)OCO5 (some centres unmarked) [Haemanthidine] the “DENVGFP inhibition at 1.56 µM” value ([2]; Huh7 cells) was “Complete inhibition”, the pEC50 [2, 12] was 6.32 and the pEC50 [2, 14] was 6.32. The “live Huh7 cells” value ([4]; 6.25 µM, 72 h) was 83.3%, the “concentration at which Huh7 cell viability is reduced” value ([4]; 72 h) was 6.25 µM and the pIC50 [1, 15] was 5.30. For the same compound, the “cytotoxic activity on AGS cells” value [1] was “showed cytotoxic activity”, the “reduction of Hacat cell viability” value [8] was 15–30% and the “cytotoxic activity on Hacat cells” value [8] was “showed cytotoxic activity”. The “live THP-1 cells” value [7] was 71%, the “concentration … to decrease” value [7] was 3.125 µM and the CC50 at 72 h ([5]; CC50 THP-1, 72 h, ATP levels) was 16.8 µM. The “reduction of A431 cell viability” value [9] was 15–30%, the “cytotoxic activity on A431 cells” value [9] was “showed cytotoxic activity” and the “HIV-1GFP inhibition at 100 µM” value [6] was “Complete viral inhibition”. The “inhibition of HIV-1GFP, dose dependence” value [6] was “dose-dependent inhibition of HIV-1”, the pEC50 ([6]; Homo sapiens, THP-1, 72 h) was 4.90 and the pEC50 [6] was 4.89.
O[C@@H]1C=C[C@]23CCN(Cc4cc5c(cc42)OCO5)[C@H]3C1 [Vittatine] gave a pEC50 [2, 12] of 4.81.
With CO[C@@H]1C=C[C@@]23c4cc5c(cc4CO[C@]2(O)CN(C)[C@H]3C1)OCO5 [Tazettine] the pEC50 [2, 12] was 4.90, the viability at 72 h, 50 µM [3] was 85.2% and the “concentration at which Huh7 cell viability is reduced” value ([4]; human, 72 h) was “higher than 50 µM”. The “reduction of Hacat cell viability” value [8] was 15–30%, the viability at 72 h, 100 µM [5] was 60.9% and the CC50 at 72 h ([5]; CC50 THP-1, 72 h, ATP levels) was 137 µM. For the same compound, the “reduction of A431 cell viability” value [9] was 15–30%, the “inhibition of HIV-1GFP, dose dependence” value [6] was “dose-dependent inhibition of HIV-1” and the pEC50 ([6]; Homo sapiens, THP-1, 72 h) was 3.92.
For O[C@H]1[C@H]2c3cc4c(cc3CN3CCC(=C[C@@H]1O)[C@H]23)OCO4 [Lycorine], the “DENVGFP inhibition at 1.56 µM” value ([2]; Huh7 cells) was “Complete inhibition”, the pEC50 [2, 12] was 6.41 and the pEC50 [2, 13] was 6.41. For the same compound, the “reduction of Huh7 viability” value ([4]; 0.78 µM, 72 h) was 21%, the “reduction of Huh7 cell viability” value ([4]; 1.56 µM) was 25% and the pIC50 [10] was 6.30. The pIC50 [1, 15] was greater than 6.30, the “cytotoxic activity on AGS cells” value [1] was “showed cytotoxic activity” and the “cytotoxic activity on Hacat cells” value [8] was “showed cytotoxic activity”. For the same compound, the CC50 ([7]; human) was 4.61 µM, the CC50 at 72 h ([5]; CC50 THP-1) was 4.6 µM and the “cytotoxic activity on A431 cells” value [9] was “showed cytotoxic activity”. The “HIV-1GFP inhibition at 100 µM” value [6] was “Complete viral inhibition”, the “inhibition of HIV-1GFP, dose dependence” value [6] was “dose-dependent inhibition of HIV-1” and the pEC50 ([6]; Homo sapiens, THP-1, 72 h) was 4.96. It also gave a pIC50 [11] of 6.30.
Work on COc1cc2c(cc1OC)[C@H]1[C@H]3C(=CC[C@H]1OC2=O)CCN3C [Homolycorine] yielded a pEC50 [2, 12] of 4.19 and a pEC50 [2, 13] of 4.19.
With OC1C=CC23c4cc5c(cc4CN(CC2O)C3C1)OCO5 (centres unmarked) [11-Hydroxyvittatine] the pEC50 [2, 12] was 5.41, the viability at 72 h, 50 µM [3] was 73.8% and the “concentration at which Huh7 cell viability is reduced” value ([4]; 72 h) was “higher than 50 µM”. The viability at 72 h, 100 µM [5] was 52.3%, the CC50 at 72 h ([5]; CC50 THP-1, 72 h, ATP levels) was 113 µM and the “inhibition of HIV-1GFP, dose dependence” value [6] was “dose-dependent inhibition of HIV-1”. The pEC50 ([6]; Homo sapiens, THP-1, 72 h) was 4.19.
With COC1C=CC23c4cc5c(cc4CN(CC2O)C3C1)OCO5 (centres unmarked) [Haemanthamine] the “DENVGFP inhibition at 1.56 µM” value ([2]; Huh7 cells) was “Complete inhibition”, the pEC50 [2, 12] was 6.47 and the pEC50 [2, 14] was 6.47. The “live Huh7 cells” value ([4]; 3.125 µM, 72 h) was 82.2%, the “concentration at which Huh7 cell viability is reduced” value ([4]; 72 h) was “above 3.125 µM” and the pIC50 ([1]; 24 h, read-out: IC50 AGS cells at 24 h) was 5.12. For the same compound, the pIC50 ([1]; MTT, 48 h, read-out: IC50 AGS cells at 48 h) was 5.12, the pIC50 [1, 15] was 5.12 and the “reduction of Hacat cell viability” value [8] was 15–30%. For the same compound, the “live THP-1 cells” value [7] was 71%, the “concentration … to decrease” value [7] was 3.125 µM and the CC50 ([7]; read-out: CC50 THP-1, ATP levels) was 22.2 µM. For the same compound, the CC50 at 72 h ([5]; CC50 THP-1, 72 h, ATP levels) was 22.2 µM, the “reduction of A431 cell viability” value [9] was 15–30% and the “HIV-1GFP inhibition at 100 µM” value [6] was “Complete viral inhibition”. The “inhibition of HIV-1GFP, dose dependence” value [6] was “dose-dependent inhibition of HIV-1”, the pEC50 ([6]; Homo sapiens, THP-1, 72 h) was 4.60 and the pEC50 [6] was 4.60.
In the case of Cc1nnc(C(=O)NC(C)(C)c2nc(C(=O)NCc3ccc(F)cc3)c(O)c(=O)n2C)o1 [Raltegravir, reference compound], the “HIV-1 infection with positive control” value [6] was “completely impeded HIV-1 infection”.
With COC1C=CC23c4cc5c(cc4C(OC(=O)c4ccc(Br)cc4)N(CC2OC(=O)c2ccc(Br)cc2)C3C1)OCO5 (centres unmarked) [compound 11, 6,11-O,O′-Di-p-Bromobenzoyl Ester of haemanthidine] the “effect on AGS cell viability” value ([1]; MTT) was “able to reduce AGS cell viability”.
